One compound from patent US20090149417A1, “Methods and compositions for the treatment of cancer using benzopyrone-type PARP inhibitors” (priority 2007, published 2009) can be followed below.

The subject of one test is PANC-1. Description: BrdU chemiluminescent cell proliferation assay. Type of test: cell-based, human. Particulars: for IC50: Homo sapiens, PANC-1, 72 h, 72 hour treatment. As for the experimental part:
(§1) Test Agents—Cells are treated 24 hours after plating (Day 1) with vehicle or test agents at concentrations of 0.1 μM, 0.3 μM, 1 μM, 3 μM, 10 μM, 30 μM and 100 μM.
(§2) Tumor Cell Lines—Tumor cell lines (Table 1) are obtained from the American Type Cell Collection (ATCC, Rockville, Md.) or NCI-DCTD Tumor Repository (Bethesda, Md.) and maintained in proper growth media supplemented with 10% fetal bovine serum (FBS, NovaTech), and are maintained in specified growth media. Cells are propagated at 37° C. in a humidified atmosphere containing 5% carbon dioxide.
(§3) Cell proliferation assay—Cell proliferation is determined using BrdU chemiluminescent assay, which measures incorporation of 5-bromo-2′-deoxyuridine (BrdU) into the genomic DNA of proliferating cells. Briefly, cells are added with BrdU for 4 hours, during which time it incorporates into the DNA of dividing cells in place of thymidine. Following labeling, cells are fixed and DNA denatured in one step by adding a FixDenat® denaturizing solution. After removing FixDenat, an anti-BrdU-peroxidase conjugated antibody is added, which binds to BrdU incorporated into newly-synthesized cellular DNA. Following antibody incubation, cells are washed 3 times with PBS and subjected to luminescent analysis. The reaction product is quantified by measuring light emission using a scanning multi-well luminometer (luminescence ELISA reader.)
(§4) Experimental Design—Tumor cells (Table 1) are grown to 70% confluency, trypsinized, counted and seeded in 96 well flat-bottom plates at final concentrations of 7.5×103-3×10^4 cells/well (Day 0); treatment with IIIg begins on Day 1 and continues for 68 hours (Table 2). Doses for both compounds range between […] and 100 μM. At the 68 hour time point, viable cell number is measured by BrdU assay as described above. Experiments are repeated at least twice at the same doses to determine inhibition of cell proliferation. Results from these studies are used to calculate an IC50 value (drug concentration that results in half-maximal response) for IIIg in each line.
(§5) For single studies, data from each experiment is collected and expressed as % Inhibition of Cell Proliferation (% ICP) using the following calculation.
(§6) % ICP=100%×[(1−(RLUtest/RLUvehicle)]
(§7) Where RLUtest is the relative light unit of the tested sample, and RLUvehicle is the relative light unit of the vehicle in which the drug is dissolved. An IC50 value is calculated from % ICP (PRISM® GraphPad software) using the formula:
(§8) y=min+(max−min)/(1+10^(Log(IC50)−x)×Hillslope)
(§9) Where (x) is the logarithm of agonist concentration, (y) is the response, and (min) and (max) are the variable lower and upper plateaus, respectively. The variable Hillslope characterizes the slope of the curve at its midpoint. The IC50 is the drug concentration for y halfway between min and max.

The next test concerns MX-1. Description: BrdU chemiluminescent cell proliferation assay. Type of test: cell-based, human. Particulars: for IC50: Homo sapiens, MX1, 72 hour treatment. The method, then:
as §1, §2, §3, §4, §5, §6, §7, §8, §9

Test [1] relates to human SW620 colon adenocarcinoma. As to the kind of experiment: Human SW620 colon adenocarcinoma xenograft model in nude mice. In kind it is in vivo. As for the experimental part: The animals are fed ad libitu water (reverse osmosis, 1 ppm Cl) and NIH 31 Modified and Irradiated Lab Diet® consisting of 18.0% crude protein, 5.0% crude fat, and 5.0% crude fiber. The mice are housed on irradiated ALPHA-dri® bed-o-cobs® Laboratory Animal Bedding in static microisolators on a 12-hour light cycle at 21-22° C. (70-72° F.) and 40-60% humidity. PRC specifically complies with the recommendations of the Guide for Care and Use of Laboratory Animals with respect to restraint, husbandry, surgical procedures, feed and fluid regulation, and veterinary care. […]
The human SW620 colon adenocarcinoma utilized in the present study is maintained in nude mice by serial engraftment. […] Tumors are monitored twice weekly and then daily as their volumes approached 80-120 mm^3. […] Tumor size, in mm3, is calculated from: […]
Tumors are calipered twice weekly for the duration of the study. […] The time to endpoint (TTE) for each mouse is calculated according to the following equation: […]
where TTE is expressed in days, endpoint volume is in mm3, b is the intercept, and m is the slope of the line obtained by linear regression of a log-transformed tumor growth data set. […] The calculated TTE is usually less than the day on which an animal is euthanized for tumor size. […]

[2] abbreviates: mean of Exp1 and Exp2, read-out: Mean IC50.

Like-named read-outs stand apart in the source and are kept apart here.

With `O=c1ccc2c(I)c([N+](=O)[O-])ccc2o1` [IIIg, 5-iodo-6-nitro-benzopyrone], the IC50 in the test with PANC-1 (Exp1, read-out: IC50) came out at 22 µM; in the test on PANC-1 (Exp2, read-out: IC50), 27 µM; in the test on PANC-1 (setting [2]) it was 24.5 µM; in the test on MX-1 (Exp2, read-out: IC50) it was 27 µM; in the test on MX-1 (setting [2]), 27 µM. Also, the “Mean Maximum % Response” value in the test with PANC-1 (Max Concentration 100 μM) and with MX-1 (Max Concentration 100 μM) was 99% in each case. In test [1] (biweekly intraperitoneal injection, 50 mg/kg), the “Survival of tumor-bearing animals” value is on record as “prolongs survival”. For the same compound, the Tumor growth result in test [1] (once-daily or twice-weekly administration) is on record as “inhibits tumor growth”.
